Reference: patent publication US11465989B2, “Guanidine compounds and use thereof” (IMMUNOMET THERAPEUTICS INC., priority 2014, dated 2022)
pIC50: −log10 of the molar value. Where a name gives a salt, the structure may show the parent alone.

System: SK-MEL-28 cells
Assay: Cytotoxicity in low glucose condition (MTT)
Type: cell-based
Settings: Homo sapiens, SK-MEL-28, 0.75 mM glucose, 72 hours, read-out: SK-MEL-28 0.75 mM glucose Cell viability (IC50 ia)
Description: The inhibition of oxidative phosphorylation (OXPHOS) is not cytotoxic to cells in normal glucose condition, because it is postulated that normal cells have compensatory mechanism under energy stress conditions such as low glucose. However OXPHOS inhibitors show cytotoxic effect on cells in the glucose deprived condition (BirsoyK, 2014). The glucose deprived condition is observed in tumor microenvironment potentially due to poor angiogenesis. Therefore the OXPHOS inhibitors may show anti-cancer effect on cancer cells in low glucose condition that may depict tumor microenvironment.
The compounds of the present invention were evaluated their cytotoxicity in SK-MEL-28, melanoma with 0.75 mM glucose supplement. The cytotoxic effect is compared with the cytotoxicity caused by phenformin. The cytotoxicity in low glucose condition is correlated with inhibition of oxygen consumption in mitochondria.
SK-MEL-28 (HTB-72) is a melanoma cell line obtained from ATCC (MA) and cultured in RPMI 1640 media (Lifetechnologies, CA) with supplement of 10% FBS and antibiotic-antimycotic (Lifetechnologies, CA). RPMI 1640 (-Glucose) was used to prepare low glucose media and 0.75 mM glucose was supplied with D-(+)-glucose solution from Sigma. SK-MEL-28 cells were separated from culture plate using 0.5% trypsin-EDTA and 5,000 cells were plated in 96-well plate with low glucose media. After incubation at 37° C. for 24 hour, 5% CO2, the cells were treated with the compounds of present invention in FBS-free media for 72 hours. The cytotoxicity was measured by the MTT (AMRESCO, OH) assay. NADH-dependent cellular oxidoreductase reduces MTT to its insoluble […] with purple color. The enzyme depends on cell number or energy state of cells. 10 μl of 5 mg/ml MIT solution was added to each well of the assay plate and skip the well for blank. The plate was incubated at 37° C. and 5% CO2 for 2 hours. The MTT solution was removed from each well and 100 μl of DMSO was added. The plate was read by VICTOR X3 Multilabel Counter at the wavelength of 550 nm. In Table 2, the levels of IC50 are evaluated by the following criteria.

## N=C(N)NC(=N)NCCc1ccc(Cl)c(Cl)c1 [Example 1, N-1-(3,4-dichloro)phenethylbiguanide hydrochloride]
  pIC50: 5.00 to 5.30
